Results on three compounds are retold here after publication PMC6151990, “Effects of P-Glycoprotein on the Transport of DL0410, a Potential Multifunctional Anti-Alzheimer Agent” (Molecules : A Journal of Synthetic Chemistry and Natural …, 2017).

One series has as its system Caco-2 cells. In words: CCK-8 cytotoxicity assay, Caco-2. As to conditions: Caco-2, 100 µM, 12 h. Format: cell-based, human. The protocol:
(§1) The cytotoxicity of DL0410 was determined by the CCK-8 assay. Caco-2 Cells, at a density of 1 × 10^5 cells/mL, were seeded in 96-well plates for culture. The seeding density of MDCK and MDCK-MDR1cells were 0.8 × 10^5 cells/mL. Two days after seeding, increasing concentrations (0.1, 1, 10, 100 µM) of DL0410 were added for treatment, and cytotoxicity was measured after 12 h by the CCK-8 assay.

The next series has as its target human P-gp membranes (Homo sapiens, UniProt P08183). In words: P-gp ATPase activity (Pgp-Glo assay). As to conditions: P-gp ATPase stimulation.
A further series has as its system MDCK-MDR1 cell monolayer. In words: Transcellular transport across MDCK-MDR1 cell monolayer. Format: in vitro ADME, Canine. As to conditions: ER MDCK-MDR1 / ER MDCK.
The subject of the next series is P-gp (MDR1). Described as above. Format: in vitro ADME, Canine. As to conditions: dog, pH 7.4; MDCK-MDR1, DL0410 10 μM; read-out: ER.
For series [1], the system named is P-gp. Described as above. The format is in vitro ADME, Canine. To be noted: dog, pH 7.4.
Procedure: (§2) Caco-2, MDCK and MDCK-MDR1cells were cultured at seeding densities of 1 × 10^5, 2 × 10^5, 2 × 10^5 cells/cm^2, respectively, onto polycarbonate membrane transwell inserts in 12-well plates. Prior to performing the transport studies, we determined the values of Trans Epithelial Electric Resistance (TEER) and Papp values of fluorescein to ensure the integrity of the monolayers [16]. After seeding for 18 and 21 days, the cultural medium of transwell chambers was removed carefully and washed twice with HBSS (pH 7.4, 37 °C), and then pre-incubated for 30 min at 37 °C. The transwell chambers were incubated for 20 min at 37 °C. […] After incubation for 2 h, the liquor of each side was collected for determination.
(§3) To analyze DL0410 in HBSS buffer, 15 µL of IS working solution (phenacetin, 1 µg/mL) and 150 µL sample were mixed with 1000 µL ethyl acetate to extract the analytes, and then vortexed for 5 min. After centrifuging at 13,000 rpm for 10 min, the supernatant was added into another tube carefully and evaporated to dryness under a gentle flow of nitrogen gas. The residue was reconstituted in 60 µL acetonitrile–water (20:80, v/v, containing 0.5% formic acid). After centrifugation, the supernatant was used for analysis. The analytical column was Agilent Zorbax SD-C18 (100 mm × 2.1 mm, 3.5 µm; Agilent Technologies, Santa Clara, CA, USA). The mobile phase was made up of acetonitrile–water (0.5% formic acid) (20:80, v/v). Injection volume, flow rate, and column temperature were 20 µL, a 0.3 mL/min, and 35 °C, respectively. The mass spectrometer was operated in the positive scan mode. The conditions of ESI source were as follows: drying gas flow was set at 10 L/min, nebulizer pressure was 35.0 psig, capillary voltage was 3000 V, and drying gas temperature was 350 °C. The ESI was performed using nitrogen to assist nebulization.
(§4) The Papp values (cm/s) were computed according to the following equation [16], Papp=V/C0×1/S×dC/dt (V: volume of medium in the receiver chamber (mL); C0: initial concentration in the donor chamber (µM/mL), S: the surface area of monolayer (cm^2); dC/dt: variance rate in the receptor chamber of concentration with time (µM/mL/s)) The ER was calculated by the Papp value from BL to AP divided by Papp value from AP to BL. In MDCK-MDR1 and MDCK cell models, the NER was measured by comparing the ER values as follows [16]. (1) ER=Papp(B−A)/Papp(A−B) (2) NER=ERMDCK−MDR1/ERMDCK
The next series has as its system MDCK cells. In words: CCK-8 cytotoxicity assay, MDCK. The format is cell-based, Canine. As to conditions: 100 µM, 12 h. The protocol:
as §1
(Formazan colour is commonly taken as a measure of viable cells.)

Series [2] can be described thus: Transcellular transport across MDCK cell monolayer. Format: in vitro ADME, Canine. To be noted: dog.
Procedure: as §2, §3, §4
The next series relates to MDCK-MDR1 cells. In words: CCK-8 cytotoxicity assay, MDCK-MDR1. The format is cell-based, Canine. As to conditions: MDCK-MDR1, 100 µM, 12 h. The protocol: as §1
Series [3] in a line: Transcellular transport across Caco-2 cell monolayer. As to conditions: human. Format: in vitro ADME. For orientation: Caco-2 cells form a polarised layer with tight junctions and transporters.
Procedure: as §2, §3, §4
Series [4] deals with T1, P-gp (Homo sapiens, UniProt P08183).
T1 construct: expressed in transfected cells; host or cells: MDCK-MDR1 (canine kidney MDCK cells transfected with the human MDR1 gene)
Briefly: Effect on Rho123 transport (BL to AP) in MDCK-MDR1 cells. The format is cell-based. As to conditions: MDCK-MDR1, Rho123 10 µM, DL0410 50 µM, 2 h.

Series [5] is described as follows: Transcellular transport across MDCK-MDR1 cell monolayer. Format: in vitro ADME, Canine. As to conditions: dog; MDCK-MDR1 monolayer, integrity control; read-out: permeability value.
Procedure: as §2, §3, §4
The next series deals with Caco-2 cell monolayer. Briefly: Transcellular transport across Caco-2 cell monolayer. The format is in vitro ADME. To be noted: human, Caco-2.

Structures can show the parent of a compound that is named as a salt.

human P-gp membranes, sequence (P08183 whole entry): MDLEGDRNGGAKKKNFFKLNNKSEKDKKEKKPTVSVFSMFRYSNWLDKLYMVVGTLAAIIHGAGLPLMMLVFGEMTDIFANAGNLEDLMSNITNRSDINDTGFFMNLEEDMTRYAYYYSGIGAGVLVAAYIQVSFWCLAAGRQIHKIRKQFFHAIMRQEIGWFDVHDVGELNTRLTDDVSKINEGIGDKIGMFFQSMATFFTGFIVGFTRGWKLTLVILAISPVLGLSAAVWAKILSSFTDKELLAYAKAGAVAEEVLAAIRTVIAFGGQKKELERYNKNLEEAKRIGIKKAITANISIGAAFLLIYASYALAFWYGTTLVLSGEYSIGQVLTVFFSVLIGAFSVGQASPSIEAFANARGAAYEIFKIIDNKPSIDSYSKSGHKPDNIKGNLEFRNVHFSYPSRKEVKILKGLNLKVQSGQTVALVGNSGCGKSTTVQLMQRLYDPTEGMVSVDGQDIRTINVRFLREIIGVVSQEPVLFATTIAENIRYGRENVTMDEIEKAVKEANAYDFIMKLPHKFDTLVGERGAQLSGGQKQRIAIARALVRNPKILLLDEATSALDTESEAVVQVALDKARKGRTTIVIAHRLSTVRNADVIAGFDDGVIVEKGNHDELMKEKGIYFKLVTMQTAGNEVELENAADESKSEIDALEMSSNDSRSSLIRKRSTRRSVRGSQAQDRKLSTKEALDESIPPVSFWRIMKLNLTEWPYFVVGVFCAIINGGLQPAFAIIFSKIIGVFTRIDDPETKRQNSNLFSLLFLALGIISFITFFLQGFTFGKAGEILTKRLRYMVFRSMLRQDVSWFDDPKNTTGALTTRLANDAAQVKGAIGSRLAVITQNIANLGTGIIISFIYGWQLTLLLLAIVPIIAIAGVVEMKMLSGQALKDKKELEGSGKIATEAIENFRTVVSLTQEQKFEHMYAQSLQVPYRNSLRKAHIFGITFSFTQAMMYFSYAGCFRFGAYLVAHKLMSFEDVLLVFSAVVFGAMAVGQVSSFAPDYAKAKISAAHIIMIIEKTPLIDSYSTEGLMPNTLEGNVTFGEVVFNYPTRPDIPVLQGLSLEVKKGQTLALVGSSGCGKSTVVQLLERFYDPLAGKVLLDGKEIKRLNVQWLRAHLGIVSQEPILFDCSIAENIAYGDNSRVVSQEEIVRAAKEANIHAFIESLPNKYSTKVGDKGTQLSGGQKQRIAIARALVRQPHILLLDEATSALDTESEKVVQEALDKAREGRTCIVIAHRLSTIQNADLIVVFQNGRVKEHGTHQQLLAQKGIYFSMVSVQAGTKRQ
T1 sequence (P08183 whole entry): as above
Procedure for P-gp (MDR1): as §2, §3, §4

Usually Papp A→B stands for how fast a substance crosses the layer from the apical side. A high value points to fast passage. As usually defined, the Papp B→A is how fast a substance crosses the layer from the basolateral side. On to `O=C(CCN1CCCCC1)c1ccc(-c2ccc(C(=O)CCN3CCCCC3)cc2)cc1` [DL0410, 1,1’-([1,1’-Biphenyl]-4,4’-diyl)bis(3-(piperidin-1-yl)propan-1-one)dihydrochloride], for which the cytotoxicity entry in the series with Caco-2 cells, with MDCK cells and in the series with MDCK-MDR1 cells was “no significant cytotoxic effect” throughout. At human P-gp membranes, the “concentration at which the activity of ATPase was saturated” value was 150 µM. The NER with MDCK-MDR1 cell monolayer (DL0410 10 μM) is reported as 10.588; in the series with MDCK-MDR1 cell monolayer (DL0410 30 μM), 8.770; with MDCK-MDR1 cell monolayer (DL0410 30 μM + verapamil (50 μM)), 0.311; with MDCK-MDR1 cell monolayer (DL0410 100 μM) it was 5.556. For the same compound, the efflux ratio at 2 h, 10 µM in the series on P-gp (MDR1) turned out to be 14.9; in [2] (pH 7.4, MDCK, DL0410 10 μM, read-out: ER), 1.41; in [3] (pH 7.4, Caco-2, DL0410 10 μM, read-out: ER), 4.52. In addition, the Papp A→B at 2 h, 10 µM is 0.297 ± 0.111 ×10⁻⁶ cm/s in the series on P-gp [1] (MDCK-MDR1, DL0410 10 μM); 0.502 ± 0.103 ×10⁻⁶ cm/s in [2] (pH 7.4, MDCK, DL0410 10 μM); 0.725 ± 0.184 ×10⁻⁶ cm/s in series [3] (pH 7.4, Caco-2, DL0410 10 μM). Also, the Papp B→A at 2 h, 10 µM with P-gp [1] (MDCK-MDR1, DL0410 10 μM) stood at 4.43 ± 0.376 ×10⁻⁶ cm/s; in [2] (pH 7.4, MDCK, DL0410 10 μM) it was 0.708 ± 0.114 ×10⁻⁶ cm/s; in series [3] (pH 7.4, Caco-2, DL0410 10 μM), 3.27 ± 0.251 ×10⁻⁶ cm/s. Moreover, the Papp A→B at 2 h, 30 µM in the series with P-gp [1] (MDCK-MDR1, DL0410 30 μM) turned out to be 0.31 ± 0.021 ×10⁻⁶ cm/s; in [2] (pH 7.4, MDCK, DL0410 30 μM), 0.74 ± 0.023 ×10⁻⁶ cm/s; in series [3] (pH 7.4, Caco-2, DL0410 30 μM), 0.841 ± 0.098 ×10⁻⁶ cm/s. In addition, the Papp B→A at 2 h, 30 µM came to 3.21 ± 0.061 ×10⁻⁶ cm/s in the series with P-gp [1] (MDCK-MDR1, DL0410 30 μM); 0.871 ± 0.068 ×10⁻⁶ cm/s in [2] (pH 7.4, MDCK, DL0410 30 μM); 3.45 ± 0.619 ×10⁻⁶ cm/s in series [3] (pH 7.4, Caco-2, DL0410 30 μM). The efflux ratio at 2 h, 30 µM in the series on P-gp [1] (MDCK-MDR1, DL0410 30 μM, read-out: ER) is 10.3; in series [2] (pH 7.4, MDCK, DL0410 30 μM, read-out: ER), 1.18; in series [3] (pH 7.4, Caco-2, DL0410 30 μM, read-out: ER), 4.1. Moreover, the Papp A→B at 2 h, 100 µM with P-gp [1] (MDCK-MDR1, DL0410 100 μM) came out at 0.321 ± 0.039 ×10⁻⁶ cm/s; in series [2] (pH 7.4, MDCK, DL0410 100 μM), 0.95 ± 0.116 ×10⁻⁶ cm/s; in series [3] (pH 7.4, Caco-2, DL0410 100 μM) it was 1.28 ± 0.017 ×10⁻⁶ cm/s. In addition, the Papp B→A at 2 h, 100 µM with P-gp [1] (MDCK-MDR1, DL0410 100 μM) is 1.73 ± 0.105 ×10⁻⁶ cm/s; in [2] (pH 7.4, MDCK, DL0410 100 μM), 0.924 ± 0.005 ×10⁻⁶ cm/s; in series [3] (pH 7.4, Caco-2, DL0410 100 μM), 2.38 ± 0.138 ×10⁻⁶ cm/s. Moreover, the efflux ratio at 2 h, 100 µM with P-gp [1] (MDCK-MDR1, DL0410 100 μM, read-out: ER) was found to be 5.41; in series [2] (pH 7.4, MDCK, DL0410 100 μM, read-out: ER), 0.973; in series [3] (pH 7.4, Caco-2, DL0410 100 μM, read-out: ER), 1.86. In series [2] (pH 7.4, MDCK cells, summary value in text, read-out: ER), the efflux ratio at 2 h was about 1. In [3] (pH 7.4, Caco-2, summary value in text (A→B), read-out: apparent permeability (Papp)), the Papp at 2 h is about 1 ×10⁻⁶ cm/s. In addition, the “effect on Rho123 transport from BL to AP” value at P-gp [4] is listed as “reduced Rho123 efflux”.
For `COc1ccc(CCN(C)CCCC(C#N)(c2ccc(OC)c(OC)c2)C(C)C)cc1OC` (stereo not shown) [Verapamil, reference compound], the “concentration at which the activity of ATPase was saturated” value at human P-gp membranes was determined as 100 µM.
Consider `O=C1OC2(c3ccc(O)cc3Oc3cc(O)ccc32)c2ccccc21` [fluorescein, reference compound], for which the Papp in series [5] stood at 0.571 ×10⁻⁶ cm/s; in [2] (MDCK monolayer, integrity control, read-out: permeability value) it was 0.702 ×10⁻⁶ cm/s; in series [3] (Caco-2 monolayer, integrity control, read-out: apparent permeability (Papp)), 1.09 ×10⁻⁶ cm/s. This compound yielded a penetration rate in the series on Caco-2 cell monolayer of 0.10%.
